Experiment [1] deals with intracranial U87MG-luc2 glioblastoma tumor xenografts. As to the kind of experiment: Efficacy in intracranial GBM xenografts (MRI, BLI, body weight, survival). Here is the method:
Intra cranial GBM tumors were induced in 5-6 week old female athymic nude mice by stereotaxic inoculation of U87MG-luc2 cells that stably carry the luciferase gene. Seven to ten days post-inoculation, tumors were evaluated by bioluminescence using Xenogen IVIS in vivo imaging system (Caliper Life Sciences) and mice were evenly divided into treatment groups. Treatment was initiated on the day of randomization (day 0). Animals were injected intravenously (i.v.) via the tail vein with 5 mg/kg (per injection per mouse) of TMZ alone or TfRscFv-targeted TMZ cationic liposome complex (scL-TMZ). […] Mice were injected twice per week with each reagent for 5 weeks. Control animals (Vehicle) received Liposome only (no TMZ, no TfRscFv).
Assessment of in vivo efficacy: The in vivo response to treatment was evaluated based upon the changes in tumor growth, body weight change, and overall survival. Tumor growth was monitored by bioluminescence imaging (BLI) using Xenogen IVIS in vivo imaging system before, during, and after the treatments at the indicated date. […] The bioluminescence intensity of the brain tumors, a measure of tumor size/growth, was measured and compared between treatment groups. Half-way through treatment (after mice received 3 weeks of treatment with each reagent), all animals were scanned with magnetic resonance imaging (MRI) to evaluate the brain tumor. […] Tumor volume was calculated from the MRI scan and compared between treatment groups. Body weight change was monitored weekly. Overall survival was recorded and plotted by Kaplan-Meier method.
In a second experiment, different doses/number of injections per week of scL-TMZ, prepared as described herein, were compared. Groups of mice bearing U87MG-luc2 glioblastoma intracranial xenograft tumors were iv tail vein injected for 5 weeks with scL-TMZ at: 2.5 mg/kg one injection per week; 5 mg/kg one injection per week; or 5 mg/kg two injections per week and survival determined.

Experiment [2] concerns T98G cells. The note with it: TMZ resistant T98G, XTT.
From the text: The in vitro cell killing ability of the scL-TMZ was compared to free, unencapsulated TMZ in TMZ resistant human brain tumor cell line T98G using the XTT assay.
For experiment [3], the system named is T98G cells. As to the kind of experiment: XTT sensitization of TMZ resistant cells by scL-p53. The note with it: XTT 72 h after TMZ addition. It counts as cell-based, human. Here is the method:
(§1) However, as only a subset of brain tumor patients respond to TMZ it was more critical to assess the ability of scL-p53 to sensitize TMZ resistant tumors to this chemotherapeutic agent. Thus, to assess the ability of scL delivered wtp53 to sensitize TMZ resistant brain tumor cells to this first-line chemotherapeutic agent, human brain tumor derived LN-18 and T98G cells were treated with TMZ alone, or the combination of TMZ plus scL-p53 (FIG. 23). As a control, cells were also treated with the combination of TMZ and the scL delivery system carrying the same vector used to construct the pSCMVp53 plasmid, but without the p53 insert (scL-vec). The cells were plated in a 96-well plate and treated 24 hours later with scL-p53 or scL-vec. 24 hours post-transfection, the TMZ was added in increasing concentrations. […] As shown in FIG. 23 with LN-18 cells, after transfection with scL-p53 these TMZ resistant cells are now responding to even very low doses of TMZ. […] With the T98G cells (FIG. 23), although not as responsive as to TMZ as LN-18 after treatment with scL-p53, these highly resistant cells are also sensitized to the killing effects of this drug.
On the technique in general: Formazan colour is commonly taken as a measure of viable cells.

The subject of experiment [4] is LN-18 cells. Described as above. It is filed as cell-based, human. To be noted: XTT 72 h after TMZ addition. Here is the method: as §1
Experiment [5] relates to intracranial T98G tumors. Description: Survival of mice with TMZ resistant intracranial GBM tumors. It counts as in vivo, athymic nude mice. The note with it: TMZ 100 mg/m^2 i.v. daily for 14 days; scL-p53 30 ug DNA twice weekly for 2 weeks. The method, then:
Thus an experiment was performed to assess survival of mice bearing intracranial tumors derived from TMZ resistant human GBM cell line T98G. Athymic nude mice were intracranially inoculated with T98G human glioblastoma cell line. Ten days after the inoculation, animals were imaged by MRI and evenly divided into 3 groups. Treatment was started immediately after imaging. The animals were iv treated with 100 mg/m^2 of TMZ once a day for 14 consecutive days, iv administered scL-p53 (30 ug DNA/injection) (prepared as described in U.S. Pat. No. 7,780,882) twice weekly for 2 weeks, or the combination of both treatments. Survival was monitored. The number of mice surviving/group at day 14 is indicated for each group. […] In contrast, 4 of 5 mice that had received the combination therapy were still surviving.

In experiment [6] the test system is U251 cells. As to the kind of experiment: XTT sensitization to TMZ by scL-p53. The note with it: XTT 144 h after TMZ addition. It is filed as cell-based, human. The method, then:
(§2) To assess the ability of scL delivered wtp53 to sensitize brain tumor cells to first-line chemotherapeutic agent TMZ, human brain tumor derived U87 and U251 cells were treated with TMZ alone, or the combination of TMZ plus scL-p53 (prepared as described in U.S. Pat. No. 7,780,882). As a control, cells were also treated with the combination of TMZ and the scL delivery system carrying the same vector used to construct the pSCMVp53 plasmid, but without the p53 insert (scL-vec). The cells were plated in a 96-well plate and treated 24 hours later with scL-p53 or scL-vec. 6 hours post-transfection, the TMZ was added in increasing concentrations. […] As these two cell lines are known to be sensitive to TMZ, it was not unexpected that there was some response to TMZ alone.

Experiment [7] relates to U87 cells. Description: XTT sensitization to TMZ by scL-p53. It counts as cell-based, human. The note with it: XTT 144 h after TMZ addition. Here is the method: as §2
In experiment [8] the test system is U251 cells. As to the kind of experiment: XTT cell viability, liposome TMZ vs free TMZ. It is filed as cell-based, human. To be noted: at 16-46.3 μM TMZ. The method, then: Studies were carried out to compare the efficacy of standard free (unencapsulated) TMZ; and unliganded TMZ-containing liposomes (Lip-TMZ) The Lip-TMZ was prepared as described above in Example 1 using a liposome concentration of 2 mM. The zeta potentials of the Lip-TMZ molecules ranged from 35.6-40.1 mV. The TMZ concentration used was varied from 1 to about 250 uM. The ratios of Liposome to TMZ was 0.5:1, 1:1 or 2:1 (molar ratio).
Human brain tumor derived U251 cells were plated in triplicate at 2×10^3 per well in a 96-well plate. Following overnight incubation, the medium was replaced with serum-free medium, overlaid with 100 μL of indicated concentrations of either Lip-TMZ, or free TMZ, incubated for 5 h, and then supplemented with fetal bovine serum. After incubation for an additional 91 h, cell viability was determined by the XTT assay as described previously (Rait A, Pirollo K F, Rait V, et al. Inhibitory effects of the combination of HER-2 antisense oligonucleotide and chemotherapeutic agents used for the treatment of human breast cancer. Cancer Gene Ther 2001; 8:728-39.). Formazan absorbance, which correlates to cell viability, was measured at 450 nm using a microplate reader (Bio-Rad, Hercules, Calif.).

Experiment [9] relates to U87 cells. Description: XTT cell viability, Lip-TMZ vs free TMZ. It counts as cell-based, human.
Where [10] appears, read: 5 mg/kg i.v. twice per week for 5 weeks.

Results on one compound are retold here after patent US11951167B2, “Targeted liposomes” (GEORGETOWN UNIVERSITY, priority 2012, dated 2024).

The structures appear in SMILES notation. Where two headings read alike, the source gives them in different places.

For `Cn1nnc2c(C(N)=O)ncn2c1=O` [TMZ, temozolomide], the “long term survival (Kaplan-Meier)” value in experiment [1] (setting [10]) is “extended the lifespan”. Further, the “time tumor growth was controlled (BLI)” value in experiment [1] (setting [10]) is given as approximately 2.5 weeks. Further, the “tumor growth by MRI” value in [1] (5 mg/kg i.v. twice per week, after 3 weeks (6 injections)) is “some tumor growth inhibition”. For the same compound, the figures for the IC50 in experiment [2] and in experiment [3] were more than 1000 µM and approximately 2000 µM, respectively. Further, the “dose of TMZ until which no significant cell death is observed” value in experiment [4] is approximately 1000 µM. Further, the “mice surviving at day 14” value in experiment [5] is listed as “a significant number of animals succumbed”. Further, the “sensitization/response to TMZ” value in [6] and in [7] was “some response” throughout. Moreover, the cell killing effect result in [8] and in experiment [9] was “virtually no cell killing effect” throughout.

A word on the IC50: it is the concentration at which inhibition is half-maximal.
